Assay results: PubChem BioAssay (NCI)
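Five compound concentrations were applied to cells in 96-well plates for 48 hours; endpoints were derived by simple linear interpolation of the resulting dose-response curve. Abbreviation: GI50, concentration required for 50% inhibition of growth. TGI denotes the concentration required for complete inhibition of growth.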

Experiments:
Assay in all cases: DTP human tumour cell line panel, 48 h
[1] = test system: A498 renal
[2] = test system: CAKI-1 renal
[3] = test system: K-562 leukemia
[4] = test system: MALME-3M melanoma
[5] = test system: SNB-75 CNS
[6] = test system: SR leukemia
[7] = test system: U251 CNS
[8] = test system: UACC-257 melanoma
[9] = test system: PC-3 prostate
[10] = test system: HS 578T breast

SMILES | TGI [1] [µM] | TGI [2] [µM] | TGI [3] [µM] | TGI [4] [µM] | TGI [5] [µM] | TGI [6] [µM] | TGI [7] [µM] | TGI [8] [µM] | TGI [9] [µM] | GI50 [1] [µM] | GI50 [2] [µM] | GI50 [10] [µM] | TGI [10] [µM] | GI50 [4] [µM] | GI50 [9] [µM] | GI50 [5] [µM] | GI50 [7] [µM] | GI50 [8] [µM] | GI50 [3] [µM]
C#CCC(N)(CO)C(=O)O (centres undefined) | > 100 | > 100 | > 100 | > 100 | > 100 | > 100 | > 100 | > 100 | – | – | – | – | – | – | – | – | – | – | –
C=CCC1[C@@H](C(C)(C)C(C(C)=O)C(=O)C(=O)OC)OC(C(C)(C)C)N1C(=O)OC (some centres undefined) | > 100 | – | > 100 | > 100 | > 100 | – | > 100 | > 100 | – | – | – | – | – | – | – | – | – | – | –
Cc1ccccc1Nc1nc2c(s1)C(=O)c1ccccc1C2=O | 39.5 | 30.3 | > 36.2 | 28.2 | 29.9 | 11.4 | 8.83 | 12.4 | 7.95 | – | – | – | – | – | – | – | – | – | –
Cn1cc(-c2csc(-c3cn(C)c4ccccc34)n2)c2cnccc21 | 3.88 | 9.12 | – | 3.61 | 16.9 | – | 3.45 | 3.5 | 2.99 | 2.06 | 2.58 | 2.16 | 4.65 | 2.01 | 1.47 | 4.08 | 1.86 | 1.94 | –
COC1OC(C)C(OCc2ccccc2)C(OS(=O)(=O)c2ccc(C)cc2)C1OS(=O)(=O)c1ccc(C)cc1 (centres undefined) | – | > 100 | > 100 | > 100 | > 100 | > 100 | > 100 | > 100 | – | – | – | – | – | – | – | – | – | – | –
CCOC(=O)C(=O)Nc1ccccc1C(F)(F)F | > 100 | > 100 | – | > 100 | > 100 | > 100 | > 100 | > 100 | – | – | – | – | – | – | – | – | – | – | –
CC1CCCc2c1nn(C(=O)/C=C(\N)c1ccccc1)c2N (centres undefined) | 90.5 | 15.4 | > 100 | > 100 | > 100 | – | > 100 | > 100 | > 100 | 9.64 | 4.11 | 22.4 | > 100 | 9.4 | 6.54 | 25.6 | 5.06 | 25.6 | 4.99
CNC(SC)=C1C(=O)OC(C)(C)OC1=O | > 100 | > 100 | > 100 | > 100 | > 100 | > 100 | 37.7 | > 100 | – | – | – | – | – | – | – | – | – | – | –
CSc1c(C)c(C)nn1-c1ccccc1 | > 100 | > 100 | > 100 | > 100 | > 100 | – | > 100 | > 100 | – | – | – | – | – | – | – | – | – | – | –
Cc1nnc(N/N=C(/C(=O)C(C#N)c2ccccc2)C(C#N)c2ccccc2)n1N (centres undefined) | – | > 56 | 27.9 | 9.29 | 34.7 | > 100 | > 83.1 | 13.2 | – | – | – | – | – | – | – | – | – | – | –
COc1c(Br)cc(Br)c(OC)c1-c1[nH]c(Br)c(Br)c1Br | 26 | 9.1 | 15 | 16.6 | 17.6 | – | 25.7 | 19.2 | – | – | – | – | – | – | – | – | – | – | –
NC(N)=NS(=O)(=O)c1ccc(NC(=O)c2cccc3c(Nc4ccc(S(N)(=O)=O)cc4)c4ccccc4nc23)cc1 | > 100 | > 100 | > 100 | > 100 | > 100 | – | > 100 | > 100 | – | – | – | – | – | – | – | – | – | – | –
O=c1c2c3c(sc2n2c(-c4cc(-c5ccccc5)nn4-c4ccccc4)nnc2n1Cc1ccccc1)CCCC3 | > 100 | > 100 | > 100 | > 100 | 56.4 | – | > 100 | > 100 | > 100 | > 100 | > 100 | 48 | > 100 | > 100 | > 100 | 12.1 | > 100 | > 100 | > 100
Cl[Si]1(Cl)Oc2ccccc2O[Si](Cl)(Cl)Oc2ccccc2O1 | > 100 | 97.5 | 40.9 | > 100 | 99.1 | – | > 100 | – | – | – | – | – | – | – | – | – | – | – | –
O=C/C(=C(/Cl)c1ccc(O)cc1)c1ccccc1 | > 100 | > 56.8 | > 100 | 70.4 | > 67.2 | > 100 | > 56.5 | > 56.6 | – | – | – | – | – | – | – | – | – | – | –
CCOC(=O)c1ccc(N[C@@H]2c3cc4c(cc3C(C3=CC(=O)C(=O)C(OC)=C3)[C@H]3C(=O)OCC32)OCO4)cc1 (some centres undefined) | 13 | 11.5 | > 69.4 | 11.2 | 9.04 | – | 4.77 | > 82.6 | – | – | – | – | – | – | – | – | – | – | –
COC(=O)/C(C#N)=C1\CCC(C(=O)OC)N1C (centres undefined) | > 100 | > 100 | > 100 | – | > 100 | > 100 | > 100 | > 100 | – | – | – | – | – | – | – | – | – | – | –
C[C@H]1[C@H](C)CC[C@]2(C(=O)NCCNCCN)CC[C@]3(C)C(=CC[C@@H]4[C@@]5(C)CCC(=O)C(C)(C)[C@@H]5CC[C@]43C)[C@H]12 | 27.2 | 4.01 | 5.35 | 3.06 | – | – | 3.17 | 3.89 | 3.81 | 11.8 | 1.75 | 1.7 | 3.74 | 1.64 | 1.74 | – | 1.66 | 1.84 | 2.23
Cc1ccc2nc3c(Cl)c(C)c(=O)cc-3sc2c1 | > 100 | > 100 | > 100 | > 100 | > 100 | – | > 100 | > 100 | – | – | > 100 | – | – | 73.8 | – | 31.6 | 45.1 | 78.4 | –
CC1(Cc2ccccc2)NC(=S)NC1=O (centres undefined) | – | > 100 | – | > 100 | > 100 | > 100 | > 100 | > 100 | – | – | – | – | – | – | – | – | – | – | –
COc1cc2cnc3c4ccccc4ccc3c2cc1OC | > 100 | > 100 | > 100 | > 100 | > 100 | – | > 100 | > 100 | – | – | – | – | – | – | – | – | – | – | –
